System: 843126-344-R-J1-PDC complex spheroid viability
Test: Anticancer human tumor 843126-344-R-J1-PDC patient-derived melanoma cell line growth inhibition [POLQ]
Details: second compound 0.0316 µM; first compound 1 µM; hits give low values
Procedure, shortened: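 Growth inhibition in 3D: complex spheroids (tumor PDC, HUVEC, MSC) treated with POLQ inhibitor combinations; where Cmax unknown, highest tested concentration 10 microM, except SN-38 at 1 microM.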
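Note: spheroids exposed to drugs for seven days before readout.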

Structure (SMILES)	viability, T/C
COc1ccc([C@@H](O)c2cc(-c3ncnc4cc(N5CCOCC5)ccc34)c(F)cc2Cl)nn1 + Nc1ccc(C#CCN(C(=O)Cc2ncc(C(F)(F)F)cc2C(F)(F)F)c2ccc(F)cc2)nn1	87.9%

Same assay, conditions: second compound 0.0316 µM; first compound 3.16 µM; hits give low values

Structure (SMILES)	viability, T/C
COc1cc(C2c3cc4c(cc3C(OC3OC5COC(C)OC5C(O)C3O)C3COC(=O)C23)OCO4)cc(OC)c1O (stereo unspecified) + Cc1cccc(N(C)C(=O)C2C(O)CCN2c2nc(C)cc(C(F)(F)F)c2C#N)c1	55.3%
CC1COCCN1c1cc(C2(S(C)(=N)=O)CC2)nc(-c2ccnc3[nH]ccc23)n1 (stereo unspecified) + COC1C(OC(N)=O)C(O)C(Oc2ccc3c(O)c(NC(=O)c4ccc(O)c(CC=C(C)C)c4)c(=O)oc3c2C)OC1(C)C	59.2%
CC1COCCN1c1cc(-c2ccnn2C)c2ccnc(-c3ccn[nH]3)c2n1 (stereo unspecified) + COC1C(OC(N)=O)C(O)C(Oc2ccc3c(O)c(NC(=O)c4ccc(O)c(CC=C(C)C)c4)c(=O)oc3c2C)OC1(C)C	35.5%
COc1ccc([C@@H](O)c2cc(-c3ncnc4cc(N5CCOCC5)ccc34)c(F)cc2Cl)nn1 + Nc1ccc(C#CCN(C(=O)Cc2ncc(C(F)(F)F)cc2C(F)(F)F)c2ccc(F)cc2)nn1	80.9%

Same assay, conditions: second compound 0.0316 µM; first compound 10 µM; hits give low values

Structure (SMILES)	viability, T/C
COc1cc(C2c3cc4c(cc3C(OC3OC5COC(C)OC5C(O)C3O)C3COC(=O)C23)OCO4)cc(OC)c1O (stereo unspecified) + Cc1cccc(N(C)C(=O)C2C(O)CCN2c2nc(C)cc(C(F)(F)F)c2C#N)c1	49.3%
CC1COCCN1c1cc(C2(S(C)(=N)=O)CC2)nc(-c2ccnc3[nH]ccc23)n1 (stereo unspecified) + COC1C(OC(N)=O)C(O)C(Oc2ccc3c(O)c(NC(=O)c4ccc(O)c(CC=C(C)C)c4)c(=O)oc3c2C)OC1(C)C	55.9%
CC1COCCN1c1cc(-c2ccnn2C)c2ccnc(-c3ccn[nH]3)c2n1 (stereo unspecified) + COC1C(OC(N)=O)C(O)C(Oc2ccc3c(O)c(NC(=O)c4ccc(O)c(CC=C(C)C)c4)c(=O)oc3c2C)OC1(C)C	34.2%
COc1ccc([C@@H](O)c2cc(-c3ncnc4cc(N5CCOCC5)ccc34)c(F)cc2Cl)nn1 + Nc1ccc(C#CCN(C(=O)Cc2ncc(C(F)(F)F)cc2C(F)(F)F)c2ccc(F)cc2)nn1	62.9%

Same assay, conditions: second compound 0.1 µM; first compound 0.000316 µM; hits give low values

Structure (SMILES)	viability, T/C
Cn1ncnc1[C@H]1c2n[nH]c(=O)c3cc(F)cc(c23)N[C@@H]1c1ccc(F)cc1 + COC1C(OC(N)=O)C(O)C(Oc2ccc3c(O)c(NC(=O)c4ccc(O)c(CC=C(C)C)c4)c(=O)oc3c2C)OC1(C)C	96.7%

Same assay, conditions: second compound 0.1 µM; first compound 0.001 µM; hits give low values

Structure (SMILES)	viability, T/C
Cn1ncnc1[C@H]1c2n[nH]c(=O)c3cc(F)cc(c23)N[C@@H]1c1ccc(F)cc1 + COC1C(OC(N)=O)C(O)C(Oc2ccc3c(O)c(NC(=O)c4ccc(O)c(CC=C(C)C)c4)c(=O)oc3c2C)OC1(C)C	103%

Same assay, conditions: second compound 0.1 µM; first compound 0.00316 µM; hits give low values

Structure (SMILES)	viability, T/C
COc1cccc(OCCCN)c1-c1cc(Nc2cnc(C#N)cn2)n[nH]1 + COC1C(OC(N)=O)C(O)C(Oc2ccc3c(O)c(NC(=O)c4ccc(O)c(CC=C(C)C)c4)c(=O)oc3c2C)OC1(C)C	93.3%
Cn1ncnc1[C@H]1c2n[nH]c(=O)c3cc(F)cc(c23)N[C@@H]1c1ccc(F)cc1 + COC1C(OC(N)=O)C(O)C(Oc2ccc3c(O)c(NC(=O)c4ccc(O)c(CC=C(C)C)c4)c(=O)oc3c2C)OC1(C)C	93.5%

Same assay, conditions: second compound 0.1 µM; first compound 0.01 µM; hits give low values

Structure (SMILES)	viability, T/C
COc1cccc(OCCCN)c1-c1cc(Nc2cnc(C#N)cn2)n[nH]1 + COC1C(OC(N)=O)C(O)C(Oc2ccc3c(O)c(NC(=O)c4ccc(O)c(CC=C(C)C)c4)c(=O)oc3c2C)OC1(C)C	81.8%
Cn1ncnc1[C@H]1c2n[nH]c(=O)c3cc(F)cc(c23)N[C@@H]1c1ccc(F)cc1 + COC1C(OC(N)=O)C(O)C(Oc2ccc3c(O)c(NC(=O)c4ccc(O)c(CC=C(C)C)c4)c(=O)oc3c2C)OC1(C)C	91.8%

Same assay, conditions: second compound 0.1 µM; first compound 0.0316 µM; hits give low values

Structure (SMILES)	viability, T/C
COc1cc(C2c3cc4c(cc3C(OC3OC5COC(C)OC5C(O)C3O)C3COC(=O)C23)OCO4)cc(OC)c1O (stereo unspecified) + Cc1cccc(N(C)C(=O)C2C(O)CCN2c2nc(C)cc(C(F)(F)F)c2C#N)c1	83.2%
COc1cccc(OCCCN)c1-c1cc(Nc2cnc(C#N)cn2)n[nH]1 + COC1C(OC(N)=O)C(O)C(Oc2ccc3c(O)c(NC(=O)c4ccc(O)c(CC=C(C)C)c4)c(=O)oc3c2C)OC1(C)C	73.2%
CC1COCCN1c1cc(C2(S(C)(=N)=O)CC2)nc(-c2ccnc3[nH]ccc23)n1 (stereo unspecified) + COC1C(OC(N)=O)C(O)C(Oc2ccc3c(O)c(NC(=O)c4ccc(O)c(CC=C(C)C)c4)c(=O)oc3c2C)OC1(C)C	90.9%
Cn1ncnc1[C@H]1c2n[nH]c(=O)c3cc(F)cc(c23)N[C@@H]1c1ccc(F)cc1 + COC1C(OC(N)=O)C(O)C(Oc2ccc3c(O)c(NC(=O)c4ccc(O)c(CC=C(C)C)c4)c(=O)oc3c2C)OC1(C)C	121%
CC1COCCN1c1cc(-c2ccnn2C)c2ccnc(-c3ccn[nH]3)c2n1 (stereo unspecified) + COC1C(OC(N)=O)C(O)C(Oc2ccc3c(O)c(NC(=O)c4ccc(O)c(CC=C(C)C)c4)c(=O)oc3c2C)OC1(C)C	81.1%
COc1ccc([C@@H](O)c2cc(-c3ncnc4cc(N5CCOCC5)ccc34)c(F)cc2Cl)nn1 + Nc1ccc(C#CCN(C(=O)Cc2ncc(C(F)(F)F)cc2C(F)(F)F)c2ccc(F)cc2)nn1	95.7%

Same assay, conditions: second compound 0.1 µM; first compound 0.1 µM; hits give low values

Structure (SMILES)	viability, T/C
COc1cc(C2c3cc4c(cc3C(OC3OC5COC(C)OC5C(O)C3O)C3COC(=O)C23)OCO4)cc(OC)c1O (stereo unspecified) + Cc1cccc(N(C)C(=O)C2C(O)CCN2c2nc(C)cc(C(F)(F)F)c2C#N)c1	103%
COc1cccc(OCCCN)c1-c1cc(Nc2cnc(C#N)cn2)n[nH]1 + COC1C(OC(N)=O)C(O)C(Oc2ccc3c(O)c(NC(=O)c4ccc(O)c(CC=C(C)C)c4)c(=O)oc3c2C)OC1(C)C	52%
CC1COCCN1c1cc(C2(S(C)(=N)=O)CC2)nc(-c2ccnc3[nH]ccc23)n1 (stereo unspecified) + COC1C(OC(N)=O)C(O)C(Oc2ccc3c(O)c(NC(=O)c4ccc(O)c(CC=C(C)C)c4)c(=O)oc3c2C)OC1(C)C	80.3%
Cn1ncnc1[C@H]1c2n[nH]c(=O)c3cc(F)cc(c23)N[C@@H]1c1ccc(F)cc1 + COC1C(OC(N)=O)C(O)C(Oc2ccc3c(O)c(NC(=O)c4ccc(O)c(CC=C(C)C)c4)c(=O)oc3c2C)OC1(C)C	87.2%
CC1COCCN1c1cc(-c2ccnn2C)c2ccnc(-c3ccn[nH]3)c2n1 (stereo unspecified) + COC1C(OC(N)=O)C(O)C(Oc2ccc3c(O)c(NC(=O)c4ccc(O)c(CC=C(C)C)c4)c(=O)oc3c2C)OC1(C)C	76.5%
COc1ccc([C@@H](O)c2cc(-c3ncnc4cc(N5CCOCC5)ccc34)c(F)cc2Cl)nn1 + Nc1ccc(C#CCN(C(=O)Cc2ncc(C(F)(F)F)cc2C(F)(F)F)c2ccc(F)cc2)nn1	95.8%

Same assay, conditions: second compound 0.1 µM; first compound 0.316 µM; hits give low values

Structure (SMILES)	viability, T/C
COc1cc(C2c3cc4c(cc3C(OC3OC5COC(C)OC5C(O)C3O)C3COC(=O)C23)OCO4)cc(OC)c1O (stereo unspecified) + Cc1cccc(N(C)C(=O)C2C(O)CCN2c2nc(C)cc(C(F)(F)F)c2C#N)c1	100%
COc1cccc(OCCCN)c1-c1cc(Nc2cnc(C#N)cn2)n[nH]1 + COC1C(OC(N)=O)C(O)C(Oc2ccc3c(O)c(NC(=O)c4ccc(O)c(CC=C(C)C)c4)c(=O)oc3c2C)OC1(C)C	44.1%
CC1COCCN1c1cc(C2(S(C)(=N)=O)CC2)nc(-c2ccnc3[nH]ccc23)n1 (stereo unspecified) + COC1C(OC(N)=O)C(O)C(Oc2ccc3c(O)c(NC(=O)c4ccc(O)c(CC=C(C)C)c4)c(=O)oc3c2C)OC1(C)C	97.6%
CC1COCCN1c1cc(-c2ccnn2C)c2ccnc(-c3ccn[nH]3)c2n1 (stereo unspecified) + COC1C(OC(N)=O)C(O)C(Oc2ccc3c(O)c(NC(=O)c4ccc(O)c(CC=C(C)C)c4)c(=O)oc3c2C)OC1(C)C	67.1%
